Assays:
IL-13 = IL-13 (Homo sapiens, UniProt P35225); test: Immunoassay binding test, IL-13; settings: for IC50: IL-13 400 ng/ml, receptor 100 ng/ml, read-out: BINDING IL13 IC50
Procedure, shortened: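 Receptor-coated plates; compounds (100 to 0.78 μM final) preincubated 2 h at 37° C with fixed cytokine, then bound to receptor overnight at 4° C. Bound cytokine detected with biotinylated anti-cytokine antibody and avidin-HRP, OD 450 nm.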

TNFα = TNFα (Homo sapiens, UniProt P01375); test: Immunoassay binding test, TNFa; settings: compounds 100 to 0.78 μM; TNFα 10 ng/ml, receptor 100 ng/ml; read-out: BINDING TNF IC50
Procedure, shortened: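 ELISA-type binding test: receptor-coated plates blocked with 2% BSA, then cytokine (six-point dilution series) preincubated 2 h at 37 °C and bound overnight at 4 °C. Detection used biotinylated anti-cytokine antibody and avidin-HRP, read as OD at 450 nm. For IL-6, IL-6Ra was present at 200 ng/ml final.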

TNFa/TNFRI interaction = TNFa/TNFRI interaction (Homo sapiens, UniProt P01375); test: TNFa/TNFRI interaction displacement test; assay type: binding; settings: compounds at 50 μM; human TNFRI 100 ng/ml
Procedure, shortened: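 Plates coated overnight at 4° C with human TNFRI (100 ng/ml) and blocked with 2% BSA, then test mixtures were incubated overnight at 4° C. Bound cytokine detected with biotinylated anti-cytokine antibody (2 h, 37° C) and avidin-HRP, read as OD at 450 nm.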

IL-4 = biological target: T1, IL-4 (Homo sapiens, UniProt P05112); test: Immunoassay binding test, IL-4; settings: for IC50: IL-4 400 ng/ml, receptor 100 ng/ml, read-out: BINDING IL4 IC50
T1 sequence (P05112 25-153): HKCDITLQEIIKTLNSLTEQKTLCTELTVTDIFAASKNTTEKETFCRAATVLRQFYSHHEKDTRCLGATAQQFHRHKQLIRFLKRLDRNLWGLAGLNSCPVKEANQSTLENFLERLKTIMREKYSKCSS
Procedure, shortened: (§1)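 Compounds (final 100 to 0.78 μM) were preincubated 2 h at 37 °C with a fixed amount of cytokine; for IL-6, IL-6Ra was also present at 200 ng/ml final. Mixtures were then incubated overnight at 4 °C on receptor-coated plates. Bound cytokine was detected with biotinylated anti-cytokine antibody and avidin-HRP, read as OD at 450 nm.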

IL-6 = IL-6 (Homo sapiens, UniProt P05231); test: Immunoassay binding test, IL-6 (gp130 receptor, IL-6Ra present); settings: IL-6Ra 200 ng/ml
Procedure, shortened: as §1

TNFa/TNFRI interaction, sequence (P01375 77-233 limits assumed): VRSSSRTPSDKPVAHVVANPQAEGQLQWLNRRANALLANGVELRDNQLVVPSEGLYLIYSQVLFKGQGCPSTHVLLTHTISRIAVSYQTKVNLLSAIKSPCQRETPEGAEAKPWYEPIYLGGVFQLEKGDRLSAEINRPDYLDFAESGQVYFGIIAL
TNFα, sequence (P01375 77-233 limits assumed, species assumed): as the sequence (P01375 77-233 limits assumed) above
IL-13, sequence (P35225 25-146, species assumed): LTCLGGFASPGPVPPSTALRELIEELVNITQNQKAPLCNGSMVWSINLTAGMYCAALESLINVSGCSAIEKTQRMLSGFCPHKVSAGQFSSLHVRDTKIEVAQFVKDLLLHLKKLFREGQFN
IL-6, sequence (P05231 30-212, species assumed): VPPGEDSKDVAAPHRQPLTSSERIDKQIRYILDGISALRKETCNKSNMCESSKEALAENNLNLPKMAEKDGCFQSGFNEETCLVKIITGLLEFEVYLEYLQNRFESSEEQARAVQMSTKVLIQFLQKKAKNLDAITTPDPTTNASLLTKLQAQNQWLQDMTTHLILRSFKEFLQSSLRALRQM

Structure (SMILES)	BINDING IL13 % Neutra at 100 μM (IL-13) [%]	IC50 (IL-13) [µM]	IC50 (TNFα) [µM]	Displacement (%) (TNFa/TNFRI interaction)	BINDING IL4 % Neutra at 100 μM (IL-4) [%]	IC50 (IL-4) [µM]	BINDING IL6 % Neutra at 100 μM (IL-6) [%]
O=S(=O)(c1ccccc1)n1cc(CN(CCCCNC2CCCCC2)Cc2cccnc2F)c2ccccc21 [Compound 43, N1-cyclohexyl-N4-((2-fluoropyridin-3-yl)methyl)-N4-((1-(phenylsulfonyl)-1H-indol-3-yl)methyl)butane-1,4-diamine]	85.1	> 50	8.8	87	93.2	6.7	0
O=S(=O)(c1ccccc1)n1cc(CN(CCCCNC2CCCCC2)Cc2cccc(F)n2)c2ccccc21 [Compound 45, N1-cyclohexyl-N4-((6-fluoropyridin-2-yl)methyl)-N4-((1-(phenylsulfonyl)-1H-indol-3-yl)methyl)butane-1,4-diamine]	86.5	> 50	10.4	114	90.5	7.6	0
CN(CCCCN(Cc1cccnc1F)Cc1cn(S(=O)(=O)c2ccccc2)c2ccccc12)C1CCCCC1 [Compound 49, N1-cyclohexyl-N4-((2-fluoropyridin-3-yl)methyl)-N1-methyl-N4-((1-(phenylsulfonyl)-1H-indol-3-yl)methyl)butane-1,4-diamine]	88.8	23.9	8.2	127	89.5	5.6	0
CN(CCCCN(Cc1ccnc(F)c1)Cc1cn(S(=O)(=O)c2ccccc2)c2ccccc12)C1CCCCC1 [Compound 50, N1-cyclohexyl-N4-((2-fluoropyridin-4-yl)methyl)-N1-methyl-N4-((1-(phenylsulfonyl)-1H-indol-3-yl)methyl)butane-1,4-diamine]	90.3	26.2	7.2	138	90.6	6.3	0
CN(CCCCN(Cc1cccc(F)n1)Cc1cn(S(=O)(=O)c2ccccc2)c2ccccc12)C1CCCCC1 [Compound 51, N1-cyclohexyl-N4-((6-fluoropyridin-2-yl)methyl)-N1-methyl-N4-((1-(phenylsulfonyl)-1H-indol-3-yl)methyl)butane-1,4-diamine]	89.4	25.9	7.9	153	87.2	6.7	0

These reach a lower IC50 (IL-13). Values come first.

BINDING IL13 % Neutra at 100 μM (IL-13) [%]	IC50 (IL-13) [µM]	IC50 (TNFα) [µM]	Displacement (%) (TNFa/TNFRI interaction)	BINDING IL4 % Neutra at 100 μM (IL-4) [%]	IC50 (IL-4) [µM]	BINDING IL6 % Neutra at 100 μM (IL-6) [%]	Structure (SMILES)
93.1	17.8	8.9	99	93.3	5.5	0	O=S(=O)(c1ccccc1)n1cc(CN(CCCCCNC2CCCCC2)Cc2ccnc(F)c2)c2ccccc21 [Compound 47, N1-cyclohexyl-N5-((2-fluoropyridin-4-yl)methyl)-N5-((1-(phenylsulfonyl)-1H-indol-3-yl)methyl)pentane-1,5-diamine]
89.9	17.8	13.7	91	91.2	7	1	O=S(=O)(c1ccccc1)n1cc(CN(CCCCCNC2CCCCC2)Cc2cccc(F)n2)c2ccccc21 [Compound 48, N1-cyclohexyl-N5-((6-fluoropyridin-2-yl)methyl)-N5-((1-(phenylsulfonyl)-1H-indol-3-yl)methyl)pentane-1,5-diamine]
88.1	15.8	9.1	145	91.7	5	0	CN(CCCCCN(Cc1cccnc1F)Cc1cn(S(=O)(=O)c2ccccc2)c2ccccc12)C1CCCCC1 [Compound 52, N1-cyclohexyl-N5-((2-fluoropyridin-3-yl)methyl)-N1-methyl-N5-((1-(phenylsulfonyl)-1H-indol-3-yl)methyl)pentane-1,5-diamine]

Source: patent US20230416239A1, “COMPOUNDS AND METHODS FOR TREATING A CYTOKINE-MEDIATED DISEASE” (CONSERVATOIRE NATIONAL DES ARTS ET MÉTIERS, priority 2020, published 2023)
